Among the data in patent US20150080438A1, “6,7-Dihydro-5H-benzo[7]annulene derivatives, processes for their preparation, pharmaceutical products comprising them and their use for preparing medicaments” (Bayer Intellectual Property GmbH, priority 2011, published 2015) are IC50 values, retold here.

For this assay, the target named is T1, oestrogen receptor (ER) (Homo sapiens, UniProt P03372).
T1 construct: These MVLN cells express, along with the functional oestrogen receptor (ER), a reporter construct; endogenous in cells; host or cells: MVLN cells (MCF7 derivative with ER-responsive luciferase reporter)
T1 sequence (P03372 1-595): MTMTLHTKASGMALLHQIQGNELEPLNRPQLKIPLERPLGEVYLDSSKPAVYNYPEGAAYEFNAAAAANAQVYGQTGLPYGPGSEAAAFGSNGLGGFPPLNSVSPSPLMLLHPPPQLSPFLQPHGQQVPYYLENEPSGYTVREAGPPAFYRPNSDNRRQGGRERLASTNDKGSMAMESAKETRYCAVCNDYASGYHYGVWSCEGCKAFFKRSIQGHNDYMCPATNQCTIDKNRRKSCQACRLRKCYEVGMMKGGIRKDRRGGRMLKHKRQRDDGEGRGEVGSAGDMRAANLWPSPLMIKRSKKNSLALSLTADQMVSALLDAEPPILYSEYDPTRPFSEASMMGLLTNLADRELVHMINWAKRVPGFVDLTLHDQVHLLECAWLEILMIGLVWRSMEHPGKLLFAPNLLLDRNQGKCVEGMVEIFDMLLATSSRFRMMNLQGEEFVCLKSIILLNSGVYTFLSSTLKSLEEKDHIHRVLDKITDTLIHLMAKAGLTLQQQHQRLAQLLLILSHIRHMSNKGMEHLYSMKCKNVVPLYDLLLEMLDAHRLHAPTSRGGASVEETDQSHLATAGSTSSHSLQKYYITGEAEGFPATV
Kind of assay: Anti-oestrogenic action in MVLN cells (inhibition of estradiol-induced luciferase, transactivation antagonism). It counts as cell-based. The note with it: inhibition of estradiol-induced luciferase activity, read-out: Anti-oestrogenic action in vitro: MVLN transactivation antagonism IC50. From the text: The anti-oestrogenic action of the claimed pharmacological compounds was investigated in so-called MVLN cells in vitro. MVLN cells are derivatives of the hormone-responsive MCF7 breast cancer cells known by a person skilled in the art. These MVLN cells express, along with the functional oestrogen receptor (ER), a reporter construct, which under ER-activation expresses luciferase. Determination of the activity of the induced luciferase permits a direct conclusion on the oestrogen properties of substances. To investigate the anti-oestrogenic properties of the pharmacological compounds, they were investigated in the presence of oestrogen for their potential for inhibiting the luciferase signal induced by estradiol.
The claimed pharmacological test substances were investigated in MVLN cells for their anti-oestrogenic potential, as described (see Table 2).

Regarding `CN(CCCCCCC1=C(c2ccc(F)c(O)c2)CCCc2cc(O)c(F)cc21)CCCS(=O)(=O)CCCC(F)(F)C(F)(F)F` [Example 101, 2-Fluoro-8-(4-fluoro-3-hydroxyphenyl)-9-[6-(methyl{3-[(4,4,5,5,5-pentafluoropentyl)sulphonyl]propyl}amino)hexyl]-6,7-dihydro-5H-benzo[7]annulen-3-ol], the IC50 came to 3 nM.

As to `CN(CCCCCC1=C(c2cccc(O)c2)CCCc2cc(O)ccc21)CCCCC[S+]([O-])CCCC(F)(F)C(F)(F)F` (racemic) [Example 8, 8-(3-Hydroxyphenyl)-9-[5-(methyl{5-[(RS)-(4,4,5,5,5-pentafluoropentyl)sulphinyl]pentyl}amino)pentyl]-6,7-dihydro-5H-benzo[7]annulen-3-ol], the half-inhibitory concentration (IC50) is 8 nM.

Consider `CN(CCCCCCC1=C(c2ccccc2)CCCc2c1ccc(O)c2Cl)CCC[S+]([O-])CCCC(F)(F)C(F)(F)F` (racemic) [Example 104, 4-Chloro-9-[6-(methyl{3-[(RS)-(4,4,5,5,5-pentafluoropentyl)sulphinyl]propyl}amino)hexyl]-8-phenyl-6,7-dihydro-5H-benzo[7]annulen-3-ol], for which the IC50 came to 25 nM.

For `CN(CCCCCC1=C(c2ccc(O)c(F)c2)CCCc2cc(O)ccc21)CCCSCCCC(F)(F)C(F)(F)F` [Example 36, 8-(3-Fluoro-4-hydroxyphenyl)-9-[5-(methyl{3-[(4,4,5,5,5-pentafluoropentyl)sulphanyl]propyl}amino)pentyl]-6,7-dihydro-5H-benzo[7]annulen-3-ol], the IC50 came out at 3 nM.

In the case of `CN(CCCCCCC1=C(c2ccccc2)CCCc2cc(O)ccc21)CCCC[S+]([O-])CCCC(F)(F)C(F)(F)F` (racemic) [Example 66, 9-[6-(Methyl{4-[(RS)-(4,4,5,5,5-pentafluoropentyl)sulphinyl]butyl}amino)hexyl]-8-phenyl-6,7-dihydro-5H-benzo[7]annulen-3-ol], the IC50 is 5 nM.

For the compound `CN(CCCCCCC1=C(c2ccccc2)CCCc2cc(O)ccc21)CCC[S+]([O-])CCC(F)(F)C(F)(F)F` (racemic) [Example 61, 9-[6-(Methyl{3-[(RS)-(3,3,4,4,4-pentafluorobutyl)sulphinyl]propyl}amino)hexyl]-8-phenyl-6,7-dihydro-5H-benzo[7]annulen-3-ol], the IC50 was found to be 9 nM.

With `CN(CCCCCCC1=C(c2ccc(F)c(O)c2)CCCc2cc(O)ccc21)CCCC[S+]([O-])CCCC(F)(F)C(F)(F)F` (racemic) [Example 30, 8-(4-Fluoro-3-hydroxyphenyl)-9-[6-(methyl{4-[(RS)-(4,4,5,5,5-pentafluoropentyl)sulphinyl]butyl}amino)hexyl]-6,7-dihydro-5H-benzo[7]annulen-3-ol], the IC50 turned out to be 2 nM.

Turning to `O=S(=O)(CCCN(CCO)CCCCCCC1=C(c2ccc(F)c(O)c2)CCCc2c1ccc(O)c2F)CCCC(F)(F)C(F)(F)F` [Example 115, 4-Fluoro-8-(4-fluoro-3-hydroxyphenyl)-9-{6-[(2-hydroxyethyl){3-[(4,4,5,5,5-pentafluoropentyl)sulphonyl]propyl}amino]hexyl}-6,7-dihydro-5H-benzo[7]annulen-3-ol], the IC50 amounted to 12 nM.

With `[O-][S+](CCCN(CCCO)CCCCCCC1=C(c2ccccc2)CCCc2cc(O)ccc21)CCCC(F)(F)C(F)(F)F` (racemic) [Example 72, 9-{6-[(3-Hydroxypropyl){3-[(RS)-(4,4,5,5,5-pentafluoropentyl)sulphinyl]propyl}amino]hexyl}-8-phenyl-6,7-dihydro-5H-benzo[7]annulen-3-ol], the IC50 worked out at 4 nM.

Consider `COCCN(CCCCCCC1=C(c2ccc(F)c(O)c2)CCCc2cc(O)c(F)cc21)CCC[S+]([O-])CCCC(F)(F)C(F)(F)F` (racemic) [Example 131, 2-Fluoro-8-(4-fluoro-3-hydroxyphenyl)-9-{6-[(2-methoxyethyl){3-[(RS)-(4,4,5,5,5-pentafluoropentyl)sulphinyl]propyl}amino]hexyl}-6,7-dihydro-5H-benzo[7]annulen-3-ol], for which the IC50 came out at 2 nM.

Turning to `CC(C)(O)CN(CCCCCCC1=C(c2ccccc2)CCCc2cc(O)ccc21)CCCS(=O)(=O)CCC(F)(F)F` [Example 83, 9-{6-[(2-Hydroxy-2-methylpropyl){3-[(3,3,3-trifluoropropyl)sulphonyl]propyl}amino]hexyl}-8-phenyl-6,7-dihydro-5H-benzo[7]annulen-3-ol], the IC50 is 7 nM.

Turning to `CCN(CCCCCCC1=C(c2ccccc2)CCCc2cc(O)ccc21)CCCS(=O)(=O)CCCC(F)(F)C(F)(F)F` [Example 69, 9-[6-(Ethyl{3-[(4,4,5,5,5-pentafluoropentyl)sulphonyl]propyl}amino)hexyl]-8-phenyl-6,7-dihydro-5H-benzo[7]annulen-3-ol], the IC50 is 6 nM.

Regarding `O=S(=O)(CCCN(CCO)CCCCCCC1=C(c2ccccc2)CCCc2cc(O)ccc21)CCC(F)(F)F` [Example 79, 9-{6-[(2-Hydroxyethyl){3-[(3,3,3-trifluoropropyl)sulphonyl]propyl}amino]hexyl}-8-phenyl-6,7-dihydro-5H-benzo[7]annulen-3-ol], the IC50 stood at 9 nM.

Take `CN(CCCCCCC1=C(c2ccc(F)c(O)c2)CCCc2cc(O)c(F)cc21)CCC[S+]([O-])CCC(F)(F)C(F)(F)F` (racemic) [Example 122, 2-Fluoro-8-(4-fluoro-3-hydroxyphenyl)-9-[6-(methyl{3-[(RS)-(3,3,4,4,4-pentafluorobutyl)sulphinyl]propyl}amino)hexyl]-6,7-dihydro-5H-benzo[7]annulen-3-ol]: the IC50 worked out at 6 nM.

With `CCN(CCCCCCC1=C(c2cccc(O)c2)CCCc2cc(O)ccc21)CCCS(=O)(=O)CCCC(F)(F)C(F)(F)F` [Example 90, 9-[6-(Ethyl{3-[(4,4,5,5,5-pentafluoropentyl)sulphonyl]propyl}amino)hexyl]-8-(3-hydroxyphenyl)-6,7-dihydro-5H-benzo[7]annulen-3-ol], the IC50 came to 2 nM.

On to `CN(CCCCCCC1=C(c2ccc(F)c(O)c2)CCCc2cc(O)c(F)cc21)CCC[S+]([O-])CCC(F)(F)F` (racemic) [Example 125, 2-Fluoro-8-(4-fluoro-3-hydroxyphenyl)-9-[6-(methyl{3-[(RS)-(3,3,3-trifluoropropyl)sulphinyl]propyl}amino)hexyl]-6,7-dihydro-5H-benzo[7]annulen-3-ol], for which the half-inhibitory concentration (IC50) amounted to 16 nM.

Regarding `CN(CCCCCC1=C(c2cccnc2)CCCc2cc(O)ccc21)CCC[S+]([O-])CCCC(F)(F)C(F)(F)F` (racemic) [Example 40, 9-[5-(Methyl{3-[(RS)-(4,4,5,5,5-pentafluoropentyl)sulphinyl]propyl}amino)pentyl]-8-(3-pyridyl)-6,7-dihydro-5H-benzo[7]annulen-3-ol], the IC50 turned out to be 27 nM.

Consider `CN(CCCCCCC1=C(c2ccccc2)CCCc2cc(O)ccc21)CCCCS(=O)(=O)CCCC(F)(F)C(F)(F)F` [Example 67, 9-[6-(Methyl{4-[(4,4,5,5,5-pentafluoropentyl)sulphonyl]butyl}amino)hexyl]-8-phenyl-6,7-dihydro-5H-benzo[7]annulen-3-ol], for which the half-inhibitory concentration (IC50) amounted to 3 nM.

Turning to `CN(CCCCCCC1=C(c2ccccc2)CCCc2cc(O)ccc21)CCCS(=O)(=O)CCC(F)(F)F` [Example 60, 9-[6-(Methyl{3-[(3,3,3-trifluoropropyl)sulphonyl]propyl}amino)hexyl]-8-phenyl-6,7-dihydro-5H-benzo[7]annulen-3-ol], the IC50 was 26 nM.

In the case of `O=S(=O)(CCCN(CCCO)CCCCCCC1=C(c2ccccc2)CCCc2cc(O)ccc21)CCCC(F)(F)C(F)(F)F` [Example 73, 9-{6-[(3-Hydroxypropyl){3-[(4,4,5,5,5-pentafluoropentyl)sulphonyl]propyl}amino]hexyl}-8-phenyl-6,7-dihydro-5H-benzo[7]annulen-3-ol], the IC50 was 17 nM.

Turning to `CN(CCCCCCC1=C(c2ccc(F)c(O)c2)CCCc2cc(O)ccc21)CCCCS(=O)(=O)CCCC(F)(F)C(F)(F)F` [Example 31, 8-(4-Fluoro-3-hydroxyphenyl)-9-[6-(methyl{4-[(4,4,5,5,5-pentafluoropentyl)sulphonyl]butyl}amino)hexyl]-6,7-dihydro-5H-benzo[7]annulen-3-ol], the IC50 is 3 nM.

Consider `CN(CCCCCC[S+]([O-])CCCC(F)(F)C(F)(F)F)CCCCCC1=C(c2cccc(O)c2)CCCc2cc(O)ccc21` (racemic) [Example 10, 8-(3-Hydroxyphenyl)-9-[5-(methyl{6-[(RS)-(4,4,5,5,5-pentafluoropentyl)sulphinyl]hexyl}amino)pentyl]-6,7-dihydro-5H-benzo[7]annulen-3-ol], for which the IC50 came to 2 nM.

Regarding `CN(CCCCCCC1=C(c2ccc(F)c(O)c2)CCCc2cc(O)c(F)cc21)CCCS(=O)(=O)CCC(F)(F)F` [Example 126, 2-Fluoro-8-(4-fluoro-3-hydroxyphenyl)-9-[6-(methyl{3-[(3,3,3-trifluoropropyl)sulphonyl]propyl}amino)hexyl]-6,7-dihydro-5H-benzo[7]annulen-3-ol], the IC50 came to 32 nM.
